US20240199618A1, “NOVEL N-ACYL-[3-SUBSTITUTED]-[8-SUBSTITUTED]-5,6-DIHYDRO-[1,2,4]TRIAZOLO[4,3-a]PYRAZINES AS SELECTIVE NK-3 RECEPTOR ANTAGONISTS, PHARMACEUTICAL COMPOSITION, METHODS FOR USE IN NK-3 RECEPTOR-MEDIATED DISORDERS” (Ogeda SA, priority 2013, published 2024)

Biological target: human NK-2 receptor (Homo sapiens (Human), UniProt P21452)
Assay: Selectivity assay: [125I]-Neurokinin A binding, human NK-2 receptor
Settings: 0.1 nM [125I]-Neurokinin A, CHO membranes; read-out: hNK-2 (Ki)
Procedure: The affinity of compounds of the invention for the NK-2 receptor was evaluated in CHO recombinant cells which express the human NK-2 receptor. Membrane suspensions were prepared from these cells. […] Binding assays were performed in a 25 mM HEPES/1 mM CaCl2)/5 mM MgCl2/0.5% BSA/10 μg/ml saponin, at pH 7.4. […] The radioactivity retained on the filters was measured by using the TopCount-NXT reader (Packard).

human NK-2 receptor, sequence (P21452 whole entry): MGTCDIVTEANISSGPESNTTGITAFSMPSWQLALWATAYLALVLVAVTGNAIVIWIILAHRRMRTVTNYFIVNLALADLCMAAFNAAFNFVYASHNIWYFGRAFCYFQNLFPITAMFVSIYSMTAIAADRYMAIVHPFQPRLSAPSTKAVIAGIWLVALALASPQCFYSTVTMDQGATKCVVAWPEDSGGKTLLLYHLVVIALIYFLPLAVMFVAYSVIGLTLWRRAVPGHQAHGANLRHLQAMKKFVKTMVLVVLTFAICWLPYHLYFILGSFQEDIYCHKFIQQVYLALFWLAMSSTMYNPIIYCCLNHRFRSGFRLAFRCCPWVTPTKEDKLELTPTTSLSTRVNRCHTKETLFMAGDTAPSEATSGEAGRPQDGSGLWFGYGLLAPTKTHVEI

`Cc1nsc(-c2nnc3n2CCN(C(=O)c2ccc(F)cc2)[C@@H]3C)n1` [Compound 5, (R)-(4-fluorophenyl)(8-methyl-3-(3-methyl-1,2,4-thiadiazol-5-yl)-5,6-dihydro-[1,2,4]triazolo[4,3-a]pyrazin-7(8H)-yl)methanone] was tested. Which Ki did it give?
Its Ki is > 30 µM.
